Measurements from US12435057B2, “Triazole carboxylic acids as LPA antagonists” (BRISTOL-MYERS SQUIBB COMPANY, priority 2019, dated 2025).
Structures can show the parent of a compound that is named as a salt.

Target: T1, human LPA1 (Homo sapiens, UniProt Q92633)
T1 construct: expressed in transfected cells; host or cells: Chinese hamster ovary (CHO) cells
Assay: LPA1 functional antagonist assay (calcium flux)
Format: cell-based
Conditions: CHO cells overexpressing human LPA1; inhibition of calcium flux induced by 10 nM LPA; read-out: hLPA1 IC50
Method: The effectiveness of compounds of the present invention as LPA1 inhibitors can be determined in an LPA1 functional antagonist assay as follows: • Chinese hamster ovary cells overexpressing human LPA1 were plated overnight (15,000 cells/well) in poly-D-lysine coated 384-well microplates (Greiner bio-one, Cat #781946) in DMEM/F12 medium (Gibco, Cat #11039). Following overnight culture, cells were loaded with calcium indicator dye (AAT Bioquest Inc, Cat #34601) for 30 minutes at 37° C. The cells were then equilibrated to room temperature for 30 minutes before the assay. Test compounds solubilized in DMSO were transferred to 384 well non-binding surface plates (Corning, Cat #3575) using the Labcyte Echo acoustic dispense and diluted with assay buffer [[…] with calcium/magnesium (Gibco Cat #14025-092), 20 mM HEPES (Gibco Cat #15630-080) and 0.1% fatty acid free BSA (Sigma Cat #A9205)] to a final concentration of 0.5% DMSO. Diluted compounds were added to the cells by FDSS6000 (Hamamatsu) at final concentrations ranging from 0.08 nM to 5 μM. and were then incubated for 20 min at room temperature at which time LPA (Avanti Polar Lipids Cat #857130C) was added at final concentrations of 10 nM to stimulate the cells. The compound IC50 value was defined as the concentration of test compound which inhibited 50% of the calcium flux induced by LPA alone. IC50 values were determined by fitting data to a 4-parameter logistic equation (GraphPad Prism, San Diego CA). b. In Vivo Assays LPA Challenge with Plasma Histamine Evaluation.

T1 sequence (Q92633 whole entry): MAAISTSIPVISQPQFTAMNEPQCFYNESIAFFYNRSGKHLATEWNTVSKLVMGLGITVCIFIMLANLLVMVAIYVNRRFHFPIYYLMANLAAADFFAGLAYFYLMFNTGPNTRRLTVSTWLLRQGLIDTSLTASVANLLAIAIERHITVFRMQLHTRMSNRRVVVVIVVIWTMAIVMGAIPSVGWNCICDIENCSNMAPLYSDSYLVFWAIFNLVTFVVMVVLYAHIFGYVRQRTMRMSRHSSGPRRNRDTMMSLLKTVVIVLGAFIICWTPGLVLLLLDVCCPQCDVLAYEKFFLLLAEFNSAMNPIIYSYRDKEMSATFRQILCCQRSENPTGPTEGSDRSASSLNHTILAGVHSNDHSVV

Structure (SMILES)	IC50 [µM]
Cc1nc(-c2nnn(C)c2COC(=O)N(C)CC2CCC2)ccc1O[C@H]1C[C@@H]2C[C@@H]2[C@@H](C(=O)O)C1 (single isomer, unassigned) [Example 4]	0.907
Cc1nc(-c2nnn(C)c2CNc2noc(CC3CC3)n2)ccc1O[C@H]1C[C@H](C(=O)O)[C@@H]2C[C@@H]21 [Example 15]	1.05
CCCCN(C)C(=O)OCc1c(-c2ccc(O[C@@H]3CC[C@H]4C(C(=O)O)[C@@H]34)c(C)n2)nnn1C (some centres unmarked) [Example 58]	0.046
CCCCN(C)C(=O)OCc1c(-c2ccc(O[C@@H]3COC[C@@H](C(=O)O)C3)c(C)n2)nnn1C [Example 18]	0.174
Cc1nc(-c2nnn(C)c2CNc2noc(CCC3CCC3)n2)ccc1O[C@@H]1CCO[C@@H](C(=O)O)C1 (racemic) [Example 33, (±)-trans-4-((6-(5-(((5-(2-cyclobutylethyl)-1,2,4-oxadiazol-3-yl)amino)methyl)-1-methyl-1H-1,2,3-triazol-4-yl)-2-methylpyridin-3-yl)oxy)tetrahydro-2H-pyran-2-carboxylic Acid]	0.263
CN(CC1CCC1)C(=O)OCc1c(-c2ccc(O[C@@H]3CC[C@H]4C(C(=O)O)[C@@H]34)cn2)nnn1C (some centres unmarked) [Example 70]	0.081
CCCCCOC(=O)Nc1c(-c2ccc(O[C@H]3COC[C@H](C(=O)O)C3)c(C)n2)nnn1C (racemic) [Example 23, (±)-trans-5-((2-methyl-6-(1-methyl-5-(((pentyloxy)carbonyl)amino)-1H-1,2,3-triazol-4-yl)pyridin-3-yl)oxy)tetrahydro-2H-pyran-3-carboxylic Acid, TFA Salt]	0.157
Cc1nc(-c2nnn(C)c2NC(=O)OCC2CC2)ccc1O[C@@H]1CC[C@H]2C(C(=O)O)[C@@H]12 (mixture of isomers) [Example 52, (±)-(1S,2R,5R,6R)-2-((6-(5-(((cyclopropylmethoxy)carbonyl)amino)-1-methyl-1H-1,2,3-triazol-4-yl)-2-methylpyridin-3-yl)oxy)bicyclo[3.1.0]hexane-6-carboxylic Acid]	1.72
Cc1nc(-c2nnn(C)c2COC(=O)N(C)CC(C)C)ccc1O[C@@H]1CC[C@H]2C(C(=O)O)[C@@H]12 (some centres unmarked) [Example 60]	0.313
Cc1nc(-c2nnn(C)c2COC(=O)N(C)CC2CCC2)ccc1O[C@@H]1CC[C@H]2C(C(=O)O)[C@@H]12 (single isomer, unassigned) [Example 45]	0.092
Cc1nc(-c2nnn(C)c2COC(=O)N(C)CC2CCC2)ccc1O[C@H]1COC[C@@H](C(=O)O)C1 [Example 32]	0.348
CCCCN(C)C(=O)OCc1c(-c2ccc(O[C@H]3CCO[C@@H](C(=O)O)C3)c(C)n2)nnn1C [Example 35]	0.644
Cc1nc(-c2nnn(C)c2CNc2nccc(-c3ccccn3)n2)ccc1OC1CCC2C(C(=O)O)C12 (mixture of isomers) [Example 48, (±)-(2R)-2-((2-Methyl-6-(1-methyl-54(4-(pyridin-2-yl)pyrimidin-2-yl)amino)methyl)-1H-1,2,3-triazol-4-yl)pyridin-3-yl)oxy)bicyclo[3.1.0]hexane-6-carboxylic Acid]	0.159
Cc1nc(-c2nnn(C)c2COC(=O)N(C)C2CCC2)ccc1O[C@@H]1CC[C@H]2C(C(=O)O)[C@@H]12 (some centres unmarked) [Example 61]	0.098
Cc1nc(-c2nnn(C)c2Cn2nnc(CC3CCCC3)n2)ccc1O[C@@H]1COC[C@@H](C(=O)O)C1 (racemic) [Example 24, (±)-trans-5-((6-(5-((5-(cyclopentylmethyl)-2H-tetrazol-2-yl)methyl)-1-methyl-1H-1,2,3-triazol-4-yl)-2-methylpyridin-3-yl)oxy)tetrahydro-2H-pyran-3-Carboxylic Acid, TFA Salt]	0.42
Cc1nc(-c2nnn(C)c2COC(=O)N(C)CC2CCC2)ccc1O[C@H]1C[C@H]2C[C@H]2[C@H](C(=O)O)C1 (racemic) [Example 2, (±)-(1R,2R,4S,6R)-4-((6-(5-((((cyclobutylmethyl)(methyl)carbamoyl)oxy)methyl)-1-methyl-1H-1,2,3-triazol-4-yl)-2-methylpyridin-3-yl)oxy) bicyclo[4.1.0]heptane-2-carboxylic Acid]	0.026
Cc1nc(-c2nnn(C)c2COC(=O)N(C)CC2CCC2)ccc1OC1CC[C@H]2C(C(=O)O)[C@@H]12 (mixture of isomers) [Example 41, (±)-(1S,2R,5R)-2-((6-(5-((((cyclobutylmethyl)(methyl)carbamoyl)oxy)methyl)-1-methyl-1H-1,2,3-triazol-4-yl)-2-methylpyridin-3-yl)oxy)bicyclo[3.1.0]hexane-6-carboxylic Acid]	0.019
CCCN(C)C(=O)OCc1c(-c2ccc(O[C@@H]3CC[C@H]4C(C(=O)O)[C@@H]34)cn2)nnn1C (mixture of isomers) [Example 69]	0.453
Cc1nc(-c2nnn(C)c2COC(=O)N(C)CC2CC2)ccc1O[C@@H]1CC[C@H]2C(C(=O)O)[C@@H]12 (some centres unmarked) [Example 59]	0.313
Cc1nc(-c2nnn(C)c2CNC(=O)OCc2ccccc2)ccc1O[C@@H]1CCC2C(C(=O)O)C21 (some centres unmarked) [Example 53]	0.016
Cc1nc(-c2nnn(C)c2COC(=O)N(C)CC2CCC2)ccc1O[C@@H]1COC[C@@H](C(=O)O)C1 [Example 21]	0.168

Structure (SMILES)	IC50 [µM]
Cc1nc(-c2nnn(C)c2COC(=O)N(C)CC2CCC2)ccc1O[C@@H]1CC2C[C@H]2[C@H](C(=O)O)C1 (single isomer, unassigned) [Example 3]	0.016
CCCCOC(=O)NCc1c(-c2ccc(O[C@@H]3CCC4C(C(=O)O)C43)c(C)n2)nnn1C (some centres unmarked) [Example 56]	0.155
Cc1nc(-c2nnn(C)c2COC(=O)N(C)Cc2ccccc2)ccc1O[C@@H]1COC[C@@H](C(=O)O)C1 [Example 22B]	0.178
Cc1nc(-c2nnn(C)c2COC(=O)N(C)CC2CCC2)ccc1OC1CC2C(C1)C2C(=O)O (centres unmarked) [Example 67]	0.262
Cc1nc(-c2nnn(C)c2COC(=O)N(C)Cc2ccccc2)ccc1O[C@H]1COC[C@@H](C(=O)O)C1 [Example 29]	0.594
Cc1nc(-c2nnn(C)c2COC(=O)N(C)CC2CCC2)ccc1O[C@H]1CC[C@@H]2[C@@H](C(=O)O)[C@@H]21 (single isomer, unassigned) [Example 43]	0.015
Cc1nc(-c2nnn(C)c2CNC(=O)OC2CCCC2)ccc1O[C@@H]1CCC2C(C(=O)O)C21 (some centres unmarked) [Example 55]	0.083
CCCCCN(C)C(=O)OCc1c(-c2ccc(O[C@H]3COC[C@@H](C(=O)O)C3)c(C)n2)nnn1C [Example 31]	0.00229
Cc1nc(-c2nnn(C)c2COC(=O)N(C)CCC(C)C)ccc1O[C@@H]1COC[C@@H](C(=O)O)C1 [Example 20]	0.222
CCCN(C)C(=O)OCc1c(-c2ccc(O[C@H]3C[C@H](C(=O)O)[C@@H]4C[C@@H]43)c(C)n2)nnn1C [Example 13]	0.793
CCCN(C)C(=O)OCc1c(-c2ccc(O[C@H]3CCO[C@H](C(=O)O)C3)c(C)n2)nnn1C [Example 38]	2.01
Cc1nc(-c2nnn(C)c2COC(=O)N(C)CC2CCC2)ccc1O[C@@H]1C[C@@H]2C[C@@H]2[C@H](C(=O)O)C1 (single isomer, unassigned) [Example 8]	0.026
CN(C(=O)OCc1c(-c2ccc(OC3CC4C(C3)C4C(=O)O)cn2)nnn1C)C1CCCC1 (centres unmarked) [Example 65]	0.44
Cc1nc(-c2nnn(C)c2COC(=O)N(C)CC2CCC2)ccc1O[C@@H]1C[C@@H]2C[C@@H]2[C@@H](C(=O)O)C1 (single isomer, unassigned) [Example 6]	0.562
Cc1nc(-c2nnn(C)c2CNc2nccc(OC3CC3)n2)ccc1OC1CC[C@H]2C(C(=O)O)[C@@H]12 (mixture of isomers) [Example 50, (±)-(1S,2R,5R,6R)-2-((6-(5-(((4-Cyclopropoxypyrimidin-2-yl)amino)methyl)-1-methyl-1H-1,2,3-triazol-4-yl)-2-methylpyridin-3-yl)oxy)bicyclo[3.1.0]hexane-6-carboxylic Acid]	0.105
Cc1nc(-c2nnn(C)c2COC(=O)N(C)CC2CCC2)ccc1O[C@H]1CCC[C@]2(C(=O)O)C[C@H]12 (single isomer, unassigned) [Example 12]	0.278
Cc1nc(-c2nnn(C)c2Cn2ncc(CC3CCCC3)n2)ccc1O[C@H]1COC[C@H](C(=O)O)C1 [Example 27]	0.11
Cc1nc(-c2nnn(C)c2COC(=O)N(C)CC2CCC2)ccc1O[C@@H]1CC[C@H]2[C@@H](C(=O)O)[C@H]21 (racemic) [Example 49, (±)-(1S,2R,5R,6R)-2-((6-(5-((((Cyclobutylmethyl)(methyl)carbamoyl)oxy)methyl)-1-methyl-1H-1,2,3-triazol-4-yl)-2-methylpyridin-3-yl)oxy)bicyclo[3.1.0]hexane-6-carboxylic Acid]	0.162
Cc1nc(-c2nnn(C)c2COC(=O)N(C)CC2CCC2)ccc1O[C@H]1CC2C[C@H]2[C@@H](C(=O)O)C1 (single isomer, unassigned) [Example 9]	0.582
Cc1nc(-c2nnn(C)c2COC(=O)N(C)CC2CCC2)ccc1O[C@@H]1CC[C@H]2C(C(=O)O)[C@@H]12 (single isomer, unassigned) [Example 42]	0.619
